Read-outs that look alike come from different tables or passages of the source.
Legend:
[1] = tested on: anti-influenza virus IgA antibody; assay type: in vivo, BALB/c mice
[2] = tested on: Mycoplasma; assay type: in vivo, mice; details: vaccine intranasal 3 times at 2-week intervals, adjuvant oral at first inoculation only
[3] = tested on: antibodies (IgG and IgA) specific to the adjuvant and IgE; assay: Detection of antibodies specific to the adjuvant and IgE in nasal irrigation liquid (ELISA); assay type: in vivo; details: plate coated with fatty acid-BSA complex, absorbance versus control mice without administration
Protocol: Subsequently, detection was carried out for the presence of antibodies (IgG and IgA) specific to the adjuvant and IgE. A linked complex between the hydroxy unsaturated-fatty acid and bovine serum albumin as a carrier protein was prepared. Each well of the 96-well EIA plate was first coated with a 100 µl aliquot of solution containing the complex (1 µg/ml). Subsequently, each well of the plate was coated with 300 µl aliquot of a blocking solution (PBS containing 5% skimmed milk) for 1 hour to avoid non-specific reactions. Then, 100 µl samples (nasal irrigation liquid) diluted to various concentrations were added into the respective wells for antigen-antibody reaction and the reaction was continued for 1 hour. The plate was then washed 3 times with PBS-0.05% Tween-20, and then 100 µl of peroxidase-conjugated anti-mouse IgG, IgA or IgE antibody (1:1000) as a secondary antibody was added thereto and the reaction was continued for one hour. After the plate was washed 3 times with PBS-Tween-20, 100 µl of a substrate solution (0.1 M citrate buffer (pH 4) containing 0.003% hydrogen peroxide and ABTS of 0.3 mg/ml) was added thereto. The plate was incubated for 15 minutes for color development. The color (O.D. at 405 nm) was assayed in a micro-plate reader.

[4] = tested on: anti-influenza virus IgA antibody; assay type: in vivo, BALB/c mice; details: 50 µg/kg oral for 5 days, serum after 2 weeks, versus vaccine with aqueous solvent (only a low level), Figure 3
[5] = tested on: tetanus toxoid (TT); design: species or system mice; details: mouse, in vivo
[6] = tested on: pertussis toxin (PT); design: species or system mice; details: mouse, in vivo
[7] = tested on: measles; assay: Measles-rubella vaccine with oral adjuvant; antibody production in the blood, measles; assay type: in vivo, mice; details: vaccine twice at 3-week intervals, adjuvant oral at first inoculation only, vaccine alone: 0.14
Protocol: (§1) A measles-rubella vaccine preparation was prepared to contain virus particles of each vaccine of which amount corresponded to 7 µg in 20 µL of the preparation. 9,12,13-Trihydroxy-10E-octadecenoic acid dissolved in PBS and sterilized by filter was prepared at a concentration of 2.5 µg in 0.5 mL. A stabilizer (0.2% porcine gelatin, 0.1% sodium glutamate, 5% lactose) was added to these preparations. The resulting mixtures were dispensed into containers, which were used as measles-rubella vaccine combined vaccine-hydroxy unsaturated fatty acid nasal drop or oral preparations. Such preparations were stored at a temperature of not more than 10°C in a cool and dark place.
(§2) The measles-rubella vaccine as prepared above was administered into mice twice at 3-week intervals, and then 9,12,13-trihydroxy-10E-octadecenoic acid was orally administered only at or around the time of the first inoculation. Then, the antibody production in the blood was evaluated.

[8] = tested on: anti-influenza virus IgA antibody; assay: […]; nasal irrigation liquid IgA by ELISA; assay type: in vivo, BALB/c mice; details: secondary response, 50 µg/kg oral over 1-5 days, versus no adjuvant (only a low level), Figure 4
[9] = tested on: anti-influenza virus IgG antibody; assay type: in vivo, BALB/c mice; details: secondary response
[10] = tested on: rubella; assay: Measles-rubella vaccine with oral adjuvant; antibody production in the blood, rubella; assay type: in vivo, mice; details: vaccine twice at 3-week intervals, adjuvant oral at first inoculation only, vaccine alone: 0.09
Protocol: as §1, §2

[11] = tested on: diphtheria toxoid (DT); design: species or system mice; details: mouse, in vivo
[12] = tested on: rotavirus vaccine; assay: Rotavirus vaccine with oral adjuvant; antibody production in the blood; assay type: in vivo, mice; details: adjuvant oral at first inoculation only
Protocol: A rotavirus vaccine preparation was prepared to contain virus particles of which amount corresponded to 3.3 µg in 20 µL. The methyl ester derivative (2) (methyl 9,12,13-trihydroxy-10E-octadecenoate) as used in Example 5 was dissolved in PBS and prepared at a concentration of 10 µg in 0.5 mL. The resulting preparation was sterilized by filter and dispensed into containers, which were used as rotavirus vaccine-hydroxy unsaturated fatty acid oral preparations or nasal drops. Such preparations were stored at a temperature of not more than 10°C in a cool and dark place.
The rotavirus vaccine as prepared above was administered into mice twice at 3-week intervals, and then the methyl ester derivative was orally administered only at or around the time of the first inoculation. Then, the antibody production in the blood was evaluated.

Question: What does the source list for `CCCCCC(O)C(O)/C=C/C(O)CCCCCCCC(=O)O` (stereo not drawn) [9,12,13-trihydroxy-10E-octadecenoic acid]?
Answer: adjuvant activity compared with the same dose of CTB (positive control), nasal irrigation liquid IgA ([1]; mouse, in vivo): comparable; adjuvant activity compared with the same dose of CTB (positive control), serum IgA ([1]; mouse, in vivo): comparable; titer of anti-influenza virus IgA antibody in the serum ([1]; secondary response, adjuvant 1 µg per mouse oral, vaccine subcutaneous, compared with HA vaccine singly used, Figure 7): significantly increased; titer of anti-influenza virus IgA antibody in the nasal irrigation liquid ([1]; secondary response, adjuvant 1 µg per mouse oral, vaccine subcutaneous, vaccine alone: only a low level, Figure 8): significantly elevated; average number of lesions ([2]; vaccine alone: 302): 178; mice in which lesions associated with Mycoplasma infection were found ([2]; vaccine alone: all of 10): 3 of 10; antibodies (IgG, IgA) specific to the adjuvant and IgE [3]: neither antibody (IgG, IgA) specific to the adjuvant nor IgE was detectable; titer of anti-influenza virus IgA antibody in the serum [4]: highly elevated; level of anti-TT-IgA antibody [5]: 11 ELISA units; level of anti-TT-IgG antibody [5]: 75 ELISA units; level of anti-PT-IgA antibody [6]: 14 ELISA units; level of anti-PT-IgG antibody [6]: 442 ELISA units; ELISA titer of antibody produced for measles [7]: 0.30; titer of anti-influenza virus IgA antibody in the nasal irrigation liquids [8]: highly elevated; titer of anti-influenza virus IgG antibody in the serum ([9]; compared with HA vaccine singly used, Figure 5): increased; titer of anti-influenza virus IgG antibody in the lung irrigation liquid ([9]; vaccine alone: only a low level, Figure 6): significantly elevated; ELISA titer of antibody produced for rubella [10]: 0.29; level of anti-DT-IgA antibody [11]: 11 ELISA units; level of anti-DT-IgG antibody [11]: 70 ELISA units

Question: Which “ELISA titer of antibody produced” value ([12]; inoculation of nasal vaccine drop twice at 3-week intervals, vaccine alone: 0.089) does the source give for `CCCCCC(O)C(O)/C=C/C(O)CCCCCCCC(=O)OC` (stereo not drawn) [methyl ester derivative, methyl 9,12,13-trihydroxy-10E-octadecenoate] here?
Answer: 0.38

Question: What about the “ELISA titer of antibody produced” value ([12]; vaccine inoculated orally twice at 3-week intervals, control without adjuvant: 0.018) of the same compound?
Answer: 0.27

From EP1195162A1 (priority 1999, dated 2000)
